Several values for one entry are separate records, joined by “and”; a condition that tells them apart may be missing. Equal entries are not always repeated. Entries after “also recorded” stand apart in the source; their conditions may differ.
Assays:
[1] = test system: coronary arteries of angiotensin II/salt-treated animals; test: Assay A: heart histology (hematoxylin&eosin), vascular inflammatory lesions and myocardial injury; type: in vivo, Male Wistar rats; settings: eplerenone 100 mpk; for Vascular inflammation and myocardial injury in the heart: angiotensin II infused rats, aldosterone replacement in adrenalectomized rats
Description: Sacrifice by exanguination after 4 weeks. Blood was be collected in dry tubes for determination of serum electrolytes and in EDTA-containing tubes for measurement of aldosterone and corticosterone levels Hearts were stained with hematoxylin&eosin and have been analyzed for determination of morphologic abnormalities (i.e. necrosis, vascular injury).

[2] = test system: vascular cell adhesion molecule-1 (VCAM-1); test: Assay C: VCAM-1 mRNA in heart by TaqMan RT-PCR; type: in vivo, Male Sprague-Dawley rats; settings: for VCAM mRNA (AU): relative to cyclophilin expression, mean ± SEM, eplerenone dose 100 mg/kg/day; for VCAM (AU): mRNA; for VCAM-1 mRNA expression: myocardium, aldosterone + salt, 7, 14, 30 days, eplerenone 100 mg/kg/day
Procedure: The procedure of Assay B was expanded upon in a further study. […] Myocardial tissue from animals in each treatment group was examined after 7, 14, or 30 days of treatment.
Potassium chloride supplementation was added to the saline solution in order to prevent the potential hypokalemia associated with aldosterone excess.
At the time of the surgery, an Alzet 2002 osmotic minipump (Alza Corp., Palo Alto, Calif.) containing either vehicle (9% ethanol/87% propylene glycol/4% dH2O) or 1.0 mg/mL d-aldosterone (Sigma Chemical, St. Louis, Mo.) was inserted subcutaneously at the nape of the neck. Aldosterone was administered at a dose of 0.75 µg/hour. […] Animals were sacrificed from each group (n=8-13) after 7, 14, or 30 days of treatment.
The fluorogenic 5′-nuclease assay (TaqMan PCR) using Applied Biosystems' 7700 Sequence Detection System (Applied Biosystems, Foster City, Calif.) allowed for real time detection/quantitation of a specific gene by monitoring the increase in fluorescence of a gene-specific, dye-labeled oligonucleotide probe. Probes for target and reference genes were labeled at the 5′-end with a 6-carboxyfluorescein (6FAM) reporter dye and at the 3′-end with a 6-carboxy-N,N,N′,N′-tetramethylrhodamine (TAMRA) quencher dye. When the probe was annealed to the target gene, fluorescence of 6FAM was prevented by the close proximity of TAMRA. The exonuclease activity of Taq polymerase released the dyes from the oligonucleotide probe by displacing the probe from the target sequence resulting in fluorescence excitation in direct proportion to the amount of target message present. Data analysis was performed using the Sequence Detection System software from Applied Biosystems.
All primers and probes were designed using Primer Express software supplied with the 7700 Sequence Detection System and synthesized by Applied Biosystems. Standard curves using 5-fold dilutions of total RNA (from 200 ng to 320 pg) were performed to determine the efficiency of each primer/probe set in the TaqMan reaction prior to the analysis of the experimental samples. Primer/probe sets were designed from known sequences of rat genes to be analyzed. All target gene values were normalized to a reference gene, constitutively expressed cyclophilin. Primer/probe set sequences can be found in Table 8.
RNA was extracted from frozen (−80° C.) rat heart tissue using the Totally RNA Isolation Kit (Ambion, Inc., Austin, Tex.). Tissue was crushed using a stainless steel mortar and pestle, which had been chilled to −80° C. and transferred to a dounce homogenizer (Kontes, Vineland, N.J.) containing 3-10 mL cold denaturation buffer. Tissue was homogenized and transferred to a sterile, 15 mL polypropylene centrifuge tube. An equal volume of phenol:chloroform:isoamyl alcohol (25:24:1) was added, samples were shaken vigorously for 1 min, and incubated on ice for at least 15 min. Samples were centrifuged for 30 min at 10,000g. The aqueous phase was removed, 1/10 volume of a sodium acetate solution (3.0 M NaOAc pH 4.5) was added, samples were shaken or inverted for 10 seconds, and acid-phenol (premixed with isoamyl alcohol):chloroform (5:1, Ambion, Inc.) was added at an volume equivalent to the starting sample volume. Samples were shaken vigorously for 1 min, followed by a 15-min incubation on ice, and centrifuged for 30 min at 10,000 g. The aqueous phase removed and placed in a clean polypropylene tube. An equal volume of isopropanol (Sigma, St. Louis, Mo.) was added and the samples were mixed and incubated overnight at −20° C. The samples were centrifuged for 30 min at 10,000 g, the supernatant was removed and the RNA pellet was resuspended in DNAse/RNAse-free water. Samples were frozen at −80° C. for at least 2 hours, thawed on wet ice, and diluted for quantitation.

[3] = group mean, data used for Table 17 (7-day protocol)
[4] = group mean, data used for Table 18 (14-day protocol)
[5] = group mean, data used for Table 19 (30-day protocol)

Row | Structure (SMILES) | Vascular inflammation and myocardial injury in the heart [1] | VCAM mRNA (AU) ([2]; after 7 days of treatment) | VCAM mRNA (AU) ([2]; after 14 days of treatment) | VCAM mRNA (AU) ([2]; after 30 days of treatment) | VCAM (AU) [2, 3] [AU] | VCAM (AU) [2, 4] [AU] | VCAM (AU) [2, 5] [AU] | VCAM (AU) ([2]; individual rats, data used for Table 17 (7-day protocol), incl. rat marked * excluded from statistics, listed as Aldosterone + salt) | VCAM (AU) ([2]; individual rats, data used for Table 18 (14-day protocol), incl. rat marked * excluded from statistics, listed as Aldosterone + salt) | VCAM (AU) ([2]; individual rats, data used for Table 19 (30-day protocol), incl. rat marked * excluded from statistics, listed as Aldosterone + salt) | VCAM-1 mRNA expression [2] | Animals with vascular inflammatory changes (lesions) in the coronary arteries ([1]; of ten animals per group, angiotensin II/salt, 4 weeks) | VCAM (AU) ([2]; individual rats, data used for Table 17 (7-day protocol), incl. rat marked * excluded from statistics, listed as Eplerenone + aldosterone + salt) | VCAM (AU) ([2]; individual rats, data used for Table 18 (14-day protocol), incl. rat marked * excluded from statistics, listed as Eplerenone + aldosterone + salt) | VCAM (AU) ([2]; individual rats, data used for Table 19 (30-day protocol), incl. rat marked * excluded from statistics, listed as Eplerenone + aldosterone + salt)
1 | C[C@]12CCC(=O)C=C1CC[C@@H]1[C@@H]2[C@@H](O)C[C@]2(C=O)[C@@H](C(=O)CO)CC[C@@H]12 [Aldosterone] | restored the severe coronary and myocardial inflammation and injury | 1.55 ± 0.39 | 1.16 | 2.14 ± 0.49 | 1.55 | 1.16 | 2.14 | 3.49 AU and 0.85 AU and 2.06 AU and 2.51 AU and 1.65 AU and 0.61 AU and 0.94 AU and 0.27 AU and 5.23 AU | 0.89 AU and 0.69 AU and 0.84 AU and 0.72 AU and 2.23 AU and 1.03 AU and 1.65 AU and 1.24 AU and 1.75 AU | 3.48 AU and 1.87 AU and 2.99 AU and 1.64 AU and 0.72 AU | increased two-fold |  |  |  | 
2 | COC(=O)[C@@H]1CC2=CC(=O)CC[C@]2(C)[C@@]23O[C@@H]2C[C@@]2(C)[C@@H](CC[C@@]24CCC(=O)O4)[C@H]13 [Eplerenone] | prevention | 0.56 ± 0.08 | 0.83 | 1.04 ± 0.14 | 0.56 | 0.83 | 1.04 |  |  |  | inhibition; also recorded: significantly reduced | one of the ten | 0.67 AU and 0.58 AU and 0.22 AU and 0.57 AU and 0.53 AU and 1.00 AU | 0.54 AU and 0.66 AU and 0.61 AU (2×) and 0.67 AU and 0.86 AU and 1.21 AU and 1.00 AU and 0.68 AU (2×) and 1.60 AU | 1.42 AU (2×) and 1.29 AU and 1.49 AU and 1.27 AU and 0.79 AU and 0.52 AU and 0.57 AU and 0.61 AU and 4.01 AU

Source: patent US6716829B2, “Aldosterone antagonist and cyclooxygenase-2 inhibitor combination therapy to prevent or treat inflammation-related cardiovascular disorders” (Pharmacia Corporation, priority 2000, dated 2004)
